This passage reports IC50 and Ki results from patent US9428504B2, “7-hydroxy-spiropipiperidine indolinyl antagonists of P2Y1 receptor” (BRISTOL-MYERS SQUIBB COMPANY, priority 2012, dated 2016).

The test system of experiment [1] is human platelet rich plasma (PRP). The experiment in a line: ADP induced platelet aggregation assay. To be noted: Homo sapiens, Platelet, read-out: PA IC50 (μM) @ 10 μM ADP, platelet aggregation induced by 10 μM ADP, human PRP.
Experimental: The ability of P2Y1 antagonists covered in the present invention to inhibit platelet aggregation induced by 10 μM ADP was tested using human platelet rich plasma (PRP) as described in Platelet Protocols: Research and Clinical Laboratory Procedures (White, M. M. et al., Academic Press (1999)). Human blood was collected in 30 μM (final concentration in blood) argatroban (GSK) as the anticoagulant at a ratio of 1 ml per 9 ml of blood. The PRP was isolated by centrifugation at 170 g for 12 minutes. The platelet poor plasma (PPP) was used as the blank for optical aggregometry. Compounds of the present invention in DMSO solution was preincubated with 250 μl PRP at 37° C. for 1 minute with stirring speed of 1000 rpm. Aggregation was initiated by addition of 2.5 μl of 1 mM ADP (Chrono-log, Havertown, Pa.) for a final ADP concentration of 10 μM. Platelet aggregation was monitored using Optical Aggregometer (Chrono-log, Havertown, Pa.) and the area under the curve (AUC) at 5 minute was measured. IC50 was calculated using vehicle control as 0% inhibition.
The target of experiment [2] is cloned human P2Y1 receptors (Homo sapiens (Human), UniProt P47900). The experiment in a line: Binding Assay B: Scintillation Proximity Assay (SPA) for P2Y1 binding. Particulars: SPA, [33P] 2MeS-ADP displacement; read-out: P2Y1 Ki (nM) using binding assay B. Put shortly:
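Membranes with ~15 fmol receptor (1.7 μg total protein) incubated with 0.3 nM [^33P]-labelled radioligand for 1 h at room temperature to completion. After centrifugation and removal of aqueous phase, bound radioactivity read by scintillation proximity; inhibition of radioligand binding measured.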
A general note: In a scintillation proximity assay essentially only radioactivity close to the scintillant gives light.

Chain of cloned human P2Y1 receptors (P47900 whole entry): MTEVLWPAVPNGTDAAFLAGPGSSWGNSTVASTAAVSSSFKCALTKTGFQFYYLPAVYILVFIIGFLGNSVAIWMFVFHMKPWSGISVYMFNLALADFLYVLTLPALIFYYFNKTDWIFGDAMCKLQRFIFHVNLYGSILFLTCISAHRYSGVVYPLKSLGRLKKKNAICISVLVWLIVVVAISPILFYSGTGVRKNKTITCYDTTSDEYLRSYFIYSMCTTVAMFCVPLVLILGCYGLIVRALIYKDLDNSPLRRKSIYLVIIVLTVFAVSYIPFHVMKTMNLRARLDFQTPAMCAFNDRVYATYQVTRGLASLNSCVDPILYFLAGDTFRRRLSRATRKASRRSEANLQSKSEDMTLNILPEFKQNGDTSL

Consider `CC(C)N1CCC2(CC1)CN(c1ccccc1NC(=O)Nc1ccc(OC(F)(F)F)cc1)c1c(O)ccc(C(F)(F)F)c12` [Example 107, 1-(2-(7-Hydroxy-1′-isopropyl-4-(trifluoromethyl)spiro [indoline-3,4′-piperidine]-1-yl)phenyl)-3-(4-(trifluoromethoxy)phenyl) urea], for which the IC50 in experiment [1] was found to be 0.6 µM. Besides, the Ki in experiment [2] is 14.4 nM.

`COc1ccc2nc(NC(=O)Nc3ccccc3N3CC4(CCN(CC(C)(C)C)CC4)c4c(C(F)(F)F)ccc(O)c43)sc2c1` [Example 108, 1-(2-(7-Hydroxy-1′-neopentyl-4-(trifluoromethyl)spiro [indoline-3,4′-piperidin]-1-yl)phenyl)-3-(6-methoxybenzo [d]thiazol-2-yl)urea]: the IC50 in experiment [1] was determined as 0.2 µM. Besides, in experiment [2], the Ki turned out to be 14.5 nM.

Take `CC(C)(C)CN1CCC2(CC1)CN(c1ccccc1NC(=O)Nc1csc(Cl)n1)c1c(O)ccc(-c3nc4cc(F)ccc4s3)c12` [Example 112, 1-(2-Chlorothiazol-4-yl)-3-(2-(4-(5-fluorobenzo[d]thiazol-2-yl)-7-hydroxy-1′-neopentylspiro[indoline-3,4′-piperidin]-1-yl)phenyl)urea]: the IC50 in experiment [1] amounted to 0.2 µM. For the same molecule, in experiment [2], the inhibition constant Ki turned out to be 9.5 nM.

Turning to `CC(C)(C)CN1CCC2(CC1)CN(c1ccccc1NC(=O)Nc1csc(Cl)n1)c1c(O)ccc(-c3nc4ccc(Cl)cc4s3)c12` [Example 113, 1-(2-(4-(6-Chlorobenzo[d]thiazol-2-yl)-7-hydroxy-1′-neopentylspiro[indoline-3,4′-piperidin]-1-yl)phenyl)-3-(2-chlorothiazol-4-yl)urea], the IC50 in experiment [1] was found to be 0.4 µM. In addition, in experiment [2], the inhibition constant Ki came out at 7.1 nM.

Consider `CC(C)(C)CN1CCC2(CC1)CN(c1ccccc1NC(=O)Nc1csc(Cl)n1)c1c(O)ccc(-c3nc4ccc(F)cc4s3)c12` [Example 114, 1-(2-Chlorothiazol-4-yl)-3-(2-(4-(6-fluorobenzo[d]thiazol-2-yl)-7-hydroxy-1′-neopentylspiro[indoline-3,4′-piperidin]-1-yl)phenyl)urea], for which, in experiment [1], the IC50 amounted to 0.1 µM. Also, the Ki in experiment [2] was found to be 5.6 nM.

For `CC(C)(C)CN1CCC2(CC1)CN(c1ccccc1NC(=O)Nc1ccc(OC(F)(F)F)cc1)c1c(O)ccc(-c3nc4c(Cl)cccc4s3)c12` [Example 115, 1-(2-(4-(4-Chlorobenzo[d]thiazol-2-yl)-7-hydroxy-1′-neopentylspiro[indoline-3,4′-piperidin]-1-yl)phenyl)-3-(4-(trifluoromethoxy)phenyl)urea], the IC50 in experiment [1] is 1 µM. Further, the inhibition constant Ki in experiment [2] is 22.8 nM.

In the case of `CC(C)(C)CN1CCC2(CC1)CN(c1ccccc1NC(=O)Nc1nc3ccc(F)cc3s1)c1c(O)ccc(-c3nc4c(Cl)cccc4s3)c12` [Example 116, 1-(2-(4-(4-Chlorobenzo[d]thiazol-2-yl)-7-hydroxy-1′-neopentylspiro[indoline-3,4′-piperidin]-1-yl)phenyl)-3-(6-fluorobenzo[b]thiazol-2-yl)urea], in experiment [1], the half-maximal inhibitory concentration (IC50) was 0.6 µM. Further, the Ki in experiment [2] came out at 36.2 nM.

Consider `CC(C)(C)CN1CCC2(CC1)CN(c1ccccc1NC(=O)Nc1nc3ccc(Cl)nc3s1)c1c(O)ccc(-c3nc4c(Cl)cccc4s3)c12` [Example 117, 1-(2-(4-(4-Chlorobenzo[d]thiazol-2-yl)-7-hydroxy-1′-neopentylspiro[indoline-3,4′-piperidin]-1-yl)phenyl)-3-(5-chlorothiazolo[5,4-b]pyridin-2-yl)urea], for which the 50% inhibitory concentration (IC50) in experiment [1] came out at 0.6 µM. In addition, in experiment [2], the Ki worked out at 29.6 nM.

As for `CC(C)(C)CN1CCC2(CC1)CN(c1ccccc1NC(=O)Nc1csc(Cl)n1)c1c(O)ccc(-c3nc4c(Cl)cccc4s3)c12` [Example 118, 1-(2-(4-(4-Chlorobenzo[d]thiazol-2-yl)-7-hydroxy-1′-neopentylspiro[indoline-3,4′-piperidin]-1-yl)phenyl)-3-(2-chlorothiazol-4-yl)urea], in experiment [1], the IC50 came out at 0.3 µM. Moreover, in experiment [2], the Ki is 15.5 nM.

For `CC(C)(C)CN1CCC2(CC1)CN(c1ccccc1NC(=O)Nc1csc(Cl)n1)c1c(O)ccc(-c3nc4ccc(Br)cc4s3)c12` [Example 119, 1-(2-(4-(6-Bromobenzo[d]thiazol-2-yl)-7-hydroxy-1′-neopentylspiro[indoline-3,4′-piperidin]-1-yl)phenyl)-3-(2-chlorothiazol-4-yl)urea], in experiment [1], the IC50 was 0.3 µM. Besides, in experiment [2], the Ki was 18.4 nM.

For the molecule `CC(C)(C)CN1CCC2(CC1)CN(c1ccccc1NC(=O)Nc1csc(C(F)(F)F)n1)c1c(O)ccc(-c3nc4cc(Cl)ccc4s3)c12` [Example 120, 1-(2-(4-(5-Chlorobenzo[d]thiazol-2-yl)-7-hydroxy-1′-neopentylspiro[indoline-3,4′-piperidin]-1-yl)phenyl)-3-(2-(trifluoromethyl)thiazol-4-yl)urea], the IC50 in experiment [1] came out at 0.6 µM. In experiment [2], the Ki turned out to be 28.5 nM.

With `CC(C)(C)CN1CCC2(CC1)CN(c1ccccc1NC(=O)Nc1ccc(OC(F)(F)F)cc1)c1c(O)ccc(-c3nc4ccc(Br)cc4s3)c12` [Example 121, 1-(2-(4-(6-Bromobenzo[d]thiazol-2-yl)-7-hydroxy-1′-neopentylspiro[indoline-3,4′-piperidin]-1-yl)phenyl)-3-(4-(trifluoromethoxy)phenyl)urea], the concentration for half-maximal inhibition (IC50) in experiment [1] was 0.4 µM. Besides, the Ki in experiment [2] was 45.6 nM.

Consider `CC(C)(C)CN1CCC2(CC1)CN(c1ccccc1NC(=O)Nc1ccc(OC(F)(F)F)cc1)c1c(O)ccc(-c3nc4cccc(Cl)c4s3)c12` [Example 123, 1-(2-(4-(7-Chlorobenzo[d]thiazol-2-yl)-7-hydroxy-1′-neopentylspiro[indoline-3,4′-piperidin]-1-yl)phenyl)-3-(4-(trifluoromethoxy)phenyl)urea], for which the 50% inhibitory concentration (IC50) in experiment [1] was determined as 0.6 µM. For the same molecule, the Ki in experiment [2] came out at 32.5 nM.

Regarding `CC(C)(C)CN1CCC2(CC1)CN(c1ccccc1NC(=O)Nc1nc3ccc(Cl)cc3s1)c1c(O)ccc(-c3nc4cccc(Cl)c4s3)c12` [Example 124, 1-(6-Chlorobenzo[d]thiazol-2-yl)-3-(2-(4-(7-chlorobenzo[d]thiazol-2-yl)-7-hydroxy-1′-neopentylspiro[indoline-3,4′-piperidin]-1-yl)phenyl)urea], the IC50 in experiment [1] turned out to be 1 µM. In experiment [2], the Ki was determined as 51.5 nM.

With `CC(C)(C)CN1CCC2(CC1)CN(c1ccccc1NC(=O)Nc1nc3ccc(Cl)nc3s1)c1c(O)ccc(-c3nc4ccc(Cl)cc4s3)c12` [Example 125, 1-(2-(4-(6-Chlorobenzo[d]thiazol-2-yl)-7-hydroxy-1′-neopentylspiro[indoline-3,4′-piperidin]-1-yl)phenyl)-3-(5-chlorothiazolo[5,4-b]pyridin-2-yl)urea], the IC50 in experiment [1] was found to be 0.9 µM. Besides, the inhibitory constant (Ki) in experiment [2] amounted to 21.6 nM.

For `CC(C)(C)CN1CCC2(CC1)CN(c1ccccc1NC(=O)Nc1nc3ccc(Cl)nc3s1)c1c(O)ccc(-c3nc4cc(F)ccc4s3)c12` [Example 126, 1-(5-Chlorothiazolo[5,4-b]pyridin-2-yl)-3-(2-(4-(5-fluorobenzo[d]thiazol-2-yl)-7-hydroxy-1′-neopentylspiro[indoline-3,4′-piperidin]-1-yl)phenyl)urea], in experiment [1], the IC50 came to 0.4 µM. Moreover, the Ki in experiment [2] was 13.1 nM.

As to `COc1ccc2nc(-c3ccc(O)c4c3C3(CCN(CC(C)(C)C)CC3)CN4c3ccccc3NC(=O)Nc3csc(Cl)n3)sc2c1` [Example 128, 1-(2-Chlorothiazol-4-yl)-3-(2-(7-hydroxy-4-(6-methoxybenzo[d]thiazol-2-yl)-1′-neopentylspiro[indoline-3,4′-piperidin]-1-yl)phenyl)urea], the IC50 in experiment [1] was 0.2 µM. In addition, the Ki in experiment [2] was 8 nM.

`COc1ccc2nc(-c3ccc(O)c4c3C3(CCN(CC(C)(C)C)CC3)CN4c3ccccc3NC(=O)Nc3csc(C(F)(F)F)n3)sc2c1` [Example 129, 1-(2-(7-Hydroxy-4-(6-methoxybenzo[d]thiazol-2-yl)-1′-neopentylspiro[indoline-3,4′-piperidin]-1-yl)phenyl)-3-(2-(trifluoromethyl)thiazol-4-yl)urea]: in experiment [1], the 50% inhibitory concentration (IC50) came to 0.7 µM. In experiment [2], the inhibition constant (Ki) amounted to 8.7 nM.

As to `COc1ccc2nc(-c3ccc(O)c4c3C3(CCN(CC(C)(C)C)CC3)CN4c3ccccc3NC(=O)Nc3ccc(OC(F)(F)F)cc3)sc2c1` [Example 130, 1-(2-(7-Hydroxy-4-(6-methoxybenzo[d]thiazol-2-yl)-1′-neopentylspiro[indoline-3,4′-piperidin]-1-yl)phenyl)-3-(4-(trifluoromethoxy)phenyl)urea], the IC50 in experiment [1] was 0.6 µM. Also, the inhibition constant (Ki) in experiment [2] was found to be 16.8 nM.

With `COc1ccc2nc(-c3ccc(O)c4c3C3(CCN(CC(C)(C)C)CC3)CN4c3ccccc3NC(=O)Nc3nc4ccc(Cl)cc4s3)sc2c1` [Example 131, 1-(6-Chlorobenzo[d]thiazol-2-yl)-3-(2-(7-hydroxy-4-(6-methoxybenzo[d]thiazol-2-yl)-1′-neopentylspiro[indoline-3,4′-piperidin]-1-yl)phenyl)urea], the concentration for half-maximal inhibition (IC50) in experiment [1] was 1 µM. Moreover, the inhibitory constant (Ki) in experiment [2] was determined as 22.5 nM.

`CC(C)(C)CN1CCC2(CC1)CN(c1ccccc1NC(=O)Nc1csc(C(F)(F)F)n1)c1c(O)ccc(-c3nc4ccc(F)cc4s3)c12` [Example 132, 1-(2-(4-(6-Fluorobenzo[d]thiazol-2-yl)-7-hydroxy-1′-neopentylspiro[indoline-3,4′-piperidin]-1-yl)phenyl)-3-(2-(trifluoromethyl)thiazol-4-yl)urea]: in experiment [1], the IC50 is 0.7 µM. For the same molecule, the Ki in experiment [2] turned out to be 12.4 nM.

With `CC(C)(C)CN1CCC2(CC1)CN(c1ccccc1NC(=O)Nc1ccc(OC(F)(F)F)cc1)c1c(O)ccc(-c3nc4cc(F)ccc4s3)c12` [Example 135, 1-(2-(4-(5-Fluorobenzo[d]thiazol-2-yl)-7-hydroxy-1′-neopentylspiro[indoline-3,4′-piperidin]-1-yl)phenyl)-3-(4-(trifluoromethoxy)phenyl)urea], the IC50 in experiment [1] is 0.6 µM. Also, the inhibitory constant (Ki) in experiment [2] is 21.7 nM.

Usually IC50 stands for the point on the concentration scale where inhibition reaches its midpoint. For orientation: Ki means the equilibrium dissociation constant of an inhibitor or competing ligand from its target.
